Test results from PMC9958940 (Viruses, 2023).
Like-named read-outs stand apart in the source and are kept apart here. Starred links: 1 amine or outer side, 2 acyl side, 3 side chain; linkers in the order of their positions; H or OH if unused. Positions of bridges follow the written chain, without caps; N, C: chain ends. Non-standard residues stand in square brackets, D forms with d. Residues, ends and D or L forms follow the SMILES beside them. *: point of attachment. hTyr(3S-OH,4S-OH,3'-OSO3H) = N[C@H](C(=O)O)[C@H](O)[C@@H](O)c1ccc(O)c(OS(=O)(=O)O)c1; pTerphenylCO(4''-OnC5H11) = CCCCCOc1ccc(-c2ccc(-c3ccc(C(=O)*)cc3)cc2)cc1; Orn(4R-OH,5R-OH) = O=C([C@H](C[C@@H](O)[C@@H](O)N[*:3])N[*:1])[*:2]; hTyr(3S-OH,4S-OH) = N[C@H](C(=O)O)[C@H](O)[C@@H](O)c1ccc(O)cc1; Pro(3S-OH,4S-Me) = C[C@H]1CN[C@H](C(=O)O)[C@H]1O; X1 = CCCCCOc1ccc(-c2cc(-c3ccc(C(=O)*)cc3)no2)cc1; Gln(3R-OH) = NC(=O)C[C@@H](O)[C@H](N)C(=O)O; Hyp = O=C(O)[C@@H]1C[C@@H](O)CN1

Experiments:
[1] = Cell viability (cell-counting kit-8, WST-8) in VeroE6/TMPRSS2 cells; format: cell-based; settings: African green monkey, 24 h with compound
SARS-CoV-2 = settings: Vero cells, read-out: IC50, SARS-CoV-2 infection, cited from earlier work
Zika virus (ZIKV) = test system: Zika virus (ZIKV); set-up: method as in ref [14] = [14]; settings: Vero cells; ref [14]; read-out: IC50, ZIKV infection; cited from earlier work
SARS-CoV-2 Wuhan strain [2] = assay: microbe, parasite or virus in culture; format: cell-based; settings: VeroE6/TMPRSS2 cells; for IC50: Severe acute respiratory syndrome coronavirus 2, Wuhan strain, MOI 0.003, extracellular viral RNA at 24 h
[3] = test system: Dengue virus serotype 2 (DENV-2); set-up: method as in ref [12] = [12]; settings: Vero cells; ref [12]; read-out: IC50, DENV-2 infection; cited from earlier work
VeroE6/TMPRSS2 cells = settings: read-out: Cell Viability CC50, essentially in the same experimental condition, ref Ohashi et al. [29]; cited from earlier work
SARS-CoV-2 Wuhan strain [4] = settings: VeroE6/TMPRSS2 cells, essentially in the same experimental condition; ref Ohashi et al. [29]; read-out: SARS-CoV-2 RNA IC50; cited from earlier work
SARS-CoV-2 Wuhan strain [5] = format: cell-based
[6] = test system: Chikungunya virus (CHIKV); set-up: method as in ref [11] = [11]; settings: U2OS or BHK-21 cells; ref [11]; read-out: IC50, CHIKV infection; cited from earlier work
SARS-CoV-2 Wuhan strain [7] = assay: microbe, parasite or virus in culture; format: cell-based; settings: Severe acute respiratory syndrome coronavirus 2, 24 h, Calu-3 cells, 3 h inoculation plus 21 h, read-out: SARS-CoV-2 RNA IC50
[8] = test system: Enterovirus 71 (EV71) replicon; set-up: method as in ref [10] = [10]; settings: Vero cells, estimated; ref [10]; read-out: IC50 to luciferase carrying EV71 replicon; cited from earlier work
[9] = set-up: method as in ref [7] = [7]; settings: human adults, 100 mg daily; ref [7]; cited from earlier work
helicase of DENV-2 = target: helicase of DENV-2; set-up: method as in ref [13] = [13]; settings: in vitro; ref [13]; read-out: IC50, DENV-2 helicase enzymatic activity; cited from earlier work
[10] = Cell viability (cell-counting kit-8, WST-8) in Calu-3 cells; format: cell-based; settings: human, 24 h with compound
3CLpro = test system: 3CLpro; set-up: method as in ref [33] = [33]; settings: in vitro; ref [33]; read-out: IC50, 3CLpro enzymatic activity; cited from earlier work

CCCCCOc1ccc(-c2ccc(-c3ccc(C(=O)N[C@H]4C[C@@H](O)[C@@H](O)NC(=O)[C@@H]5[C@@H](O)[C@@H](C)CN5C(=O)[C@H]([C@@H](C)O)NC(=O)[C@H]([C@H](O)[C@@H](O)c5ccc(O)cc5)NC(=O)[C@@H]5C[C@@H](O)CN5C(=O)[C@H]([C@@H](C)O)NC4=O)cc3)cc2)cc1 [Anidulafungin] ({pTerphenylCO(4''-OnC5H11)}-[Orn(4R-OH,5R-OH)]T[Hyp][hTyr(3S-OH,4S-OH)]T[Pro(3S-OH,4S-Me)]; lactam 1-C)
CC50 at 24 h [1]: 24.6 µM | IC50 (SARS-CoV-2; ref [16]): 4.64 µM | IC50 (Zika virus (ZIKV)): 2.08 µM | IC50 (SARS-CoV-2 Wuhan strain [2]): 7.09 µM | IC50 [3]: 3.24 µM

CCC(CC)COC(=O)[C@H](C)N[P@](=O)(OC[C@H]1O[C@@](C#N)(c2ccc3c(N)ncnn23)[C@H](O)[C@@H]1O)Oc1ccccc1 [Remdesivir]
CC50 (VeroE6/TMPRSS2 cells): > 64 µM | IC50 (SARS-CoV-2 Wuhan strain [4]): 1.58 µM | effect on viral RNA levels, compound added at post-entry phase (SARS-CoV-2 Wuhan strain [5]): remarkable antiviral activity | effect on viral RNA levels, compound added at virus entry phase (SARS-CoV-2 Wuhan strain [5]): no inhibitory effect

CC[C@H](C)C[C@H](C)CCCCCCCCC(=O)N[C@H]1C[C@@H](O)[C@@H](NCCN)NC(=O)[C@@H]2[C@@H](O)CCN2C(=O)[C@H]([C@H](O)CCN)NC(=O)[C@H]([C@H](O)[C@@H](O)c2ccc(O)cc2)NC(=O)[C@@H]2C[C@@H](O)CN2C(=O)[C@H]([C@@H](C)O)NC1=O [Caspofungin]
CC50 at 24 h [1]: > 64 µM | IC50 (Zika virus (ZIKV)): 75.8 µM | IC50 (SARS-CoV-2 Wuhan strain [2]): > 64 µM | effect on viral RNA levels (in words) (SARS-CoV-2 Wuhan strain [2]; up to 64 µM): did not show any antiviral effect | IC50 [3]: 20.8 µM

COc1ccc2cc1Oc1ccc(cc1)C[C@H]1c3c(cc4c(c3Oc3cc5c(cc3OC)CCN(C)[C@@H]5C2)OCO4)CCN1C [Cepharanthine]
CC50 (VeroE6/TMPRSS2 cells): 25.1 µM | IC50 (SARS-CoV-2 Wuhan strain [4]): 0.35 µM | effect on viral RNA levels, compound added at post-entry phase (SARS-CoV-2 Wuhan strain [5]): lower viral activity | effect on viral RNA levels, compound added at virus entry phase (SARS-CoV-2 Wuhan strain [5]): considerable inhibition

CCCCCOc1ccc(-c2cc(-c3ccc(C(=O)N[C@H]4C[C@@H](O)[C@@H](O)NC(=O)[C@@H]5[C@@H](O)[C@@H](C)CN5C(=O)[C@H]([C@H](O)CC(N)=O)NC(=O)[C@H]([C@H](O)[C@@H](O)c5ccc(O)c(OS(=O)(=O)O)c5)NC(=O)[C@@H]5C[C@@H](O)CN5C(=O)[C@H]([C@@H](C)O)NC4=O)cc3)no2)cc1 [Micafungin] (X1-[Orn(4R-OH,5R-OH)]T[Hyp][hTyr(3S-OH,4S-OH,3'-OSO3H)][Gln(3R-OH)][Pro(3S-OH,4S-Me)]; lactam 1-C)
IC50 [6]: 20.6 µM | CC50 at 24 h [1]: > 64 µM | IC50 (SARS-CoV-2 Wuhan strain [7]): 55.3 µM | IC50 [8]: 5 to 8 µM | IC50 (SARS-CoV-2; ref [15]): 5.5 to 12.9 µM | half-life [9]: 11 to 17 h | IC50 (Zika virus (ZIKV)): 7.35 µM | IC50 (SARS-CoV-2 Wuhan strain [2]): 26.1 µM | selectivity index (SI = CC50/IC50) (SARS-CoV-2 Wuhan strain [2]): > 2.45 | IC50 (helicase of DENV-2): 4.98 µM | CC50 at 24 h [10]: > 64 µM | IC50 (3CLpro): 47.6 µM | IC50 [3]: 10.2 µM
